Assay results: patent US10064873B2, “Compounds and compositions for treating HIV with derivatives of Betulin” (GlaxoSmithKline LLC, priority 2011, dated 2018)
pEC50: −log10 of the molar value.

tested on: HIV NL4-3 wt; test: MT4 antiviral assay, NL4-3 strain wild type; format: cell-based, HIV-1; settings: Human immunodeficiency virus 1, NL43, MT4, read-out: EC50 NL4-3 wt (nM)

**Q.** For CC(=O)O[C@H](CNCc1cccc(Cl)c1)[C@@]12CC[C@]3(C)[C@H](CC[C@@H]4[C@@]5(C)CC[C@H](OC(=O)CC(C)(C)C(=O)O)C(C)(C)[C@@H]5CC[C@]43C)C1=C(C(C)C)C(=O)C2 [Example 39, 4-(((3aR,5aR,5bR,7aR,9S,11aR,11bR,13aS)-3a-((S)-1-Acetoxy-2-((3-chlorobenzyl)amino)ethyl)-1-isopropyl-5a,5b,8,8,11a-pentamethyl-2-oxo-3,3a,4,5,5a,5b,6,7,7a,8,9,10,11,11a,11b,12,13,13a-octadecahydro-2H-cyclopenta[a]chrysen-9-yl)oxy)-2,2-dimethyl-4-oxobutanoic acid], which EC50 is on record?
**A.** 6.6 nM

**Q.** Which EC50 does the source give for CC(=O)O[C@@H](CNCc1cccc(Cl)c1)[C@@]12CC[C@]3(C)[C@H](CC[C@@H]4[C@@]5(C)CC[C@H](OC(=O)CC(C)(C)C(=O)O)C(C)(C)[C@@H]5CC[C@]43C)C1=C(C(C)C)C(=O)C2 [Example 40, 4-(((3aR,5aR,5bR,7aR,9S,11aR,11bR,13aS)-3a-((R)-1-Acetoxy-2-((3-chlorobenzyl)amino)ethyl)-1-isopropyl-5a,5b,8,8,11a-pentamethyl-2-oxo-3,3a,4,5,5a,5b,6,7,7a,8,9,10,11,11a,11b,12,13,13a-octadecahydro-2H-cyclopenta[a]chrysen-9-yl)oxy)-2,2-dimethyl-4-oxobutanoic acid] here?
**A.** 11.1 nM

same assay, conditions: Human immunodeficiency virus 1, NL43; MT4 cells; read-out: EC50 NL4-3 wt

**Q.** With CC(C)C1=C2[C@H]3CC[C@@H]4[C@@]5(C)CC[C@H](OC(=O)CC(C)(C)C(=O)O)C(C)(C)[C@@H]5CC[C@@]4(C)[C@]3(C)CC[C@@]2([C@H](O)CN(C)Cc2ccc(Cl)cc2)CC1=O [Example 29, 4-(((3aR,5aR,5bR,7aR,9S,11aR,11bR,13aS)-3a-((S)-2-((4-Chlorobenzyl)(methyl)amino)-1-hydroxyethyl)-1-isopropyl-5a,5b,8,8,11a-pentamethyl-2-oxo-3,3a,4,5,5a,5b,6,7,7a,8,9,10,11,11a,11b,12,13,13a-octadecahydro-2H-cyclopenta[a]chrysen-9-yl)oxy)-2,2-dimethyl-4-oxobutanoic acid] as the molecule, how does the pEC50 read?
**A.** 7.76

**Q.** CC(C)C1=C2[C@H]3CC[C@@H]4[C@@]5(C)CC[C@H](OC(=O)CC(C)(C)C(=O)O)C(C)(C)[C@@H]5CC[C@@]4(C)[C@]3(C)CC[C@@]2([C@@H](O)CN(C)Cc2ccc(Cl)cc2)CC1=O [Example 31, 4-(((3aR,5aR,5bR,7aR,9S,11aR,11bR,13aS)-3a-((R)-2-((4-Chlorobenzyl)(methyl)amino)-1-hydroxyethyl)-1-isopropyl-5a,5b,8,8,11a-pentamethyl-2-oxo-3,3a,4,5,5a,5b,6,7,7a,8,9,10,11,11a,11b,12,13,13a-octadecahydro-2H-cyclopenta[a]chrysen-9-yl)oxy)-2,2-dimethyl-4-oxobutanoic acid] was tested. Which pEC50 did it give?
**A.** 8.27

**Q.** With CC(=O)N(Cc1ccc(Cl)cc1)C[C@@H](O)[C@@]12CC[C@]3(C)[C@H](CC[C@@H]4[C@@]5(C)CC[C@H](OC(=O)CC(C)(C)C(=O)O)C(C)(C)[C@@H]5CC[C@]43C)C1=C(C(C)C)C(=O)C2 [Example 33, 4-(((3aR,5aR,5bR,7aR,9S,11aR,11bR,13aS)-3a-((S)-2-(N-(4-Chlorobenzyl)acetamido)-1-hydroxyethyl)-1-isopropyl-5a,5b,8,8,11a-pentamethyl-2-oxo-3,3a,4,5,5a,5b,6,7,7a,8,9,10,11,11a,11b,12,13,13a-octadecahydro-2H-cyclopenta[a]chrysen-9-yl)oxy)-2,2-dimethyl-4-oxobutanoic acid] as the molecule, how does the pEC50 read?
**A.** 8.28

**Q.** How did the pEC50 turn out when CC(=O)N(Cc1ccc(Cl)cc1)C[C@H](O)[C@@]12CC[C@]3(C)[C@H](CC[C@@H]4[C@@]5(C)CC[C@H](OC(=O)CC(C)(C)C(=O)O)C(C)(C)[C@@H]5CC[C@]43C)C1=C(C(C)C)C(=O)C2 [Example 34, 4-(((3aR,5aR,5bR,7aR,9S,11aR,11bR,13aS)-3a-((R)-2-(N-(4-Chlorobenzyl)acetamido)-1-hydroxyethyl)-1-isopropyl-5a,5b,8,8,11a-pentamethyl-2-oxo-3,3a,4,5,5a,5b,6,7,7a,8,9,10,11,11a,11b,12,13,13a-octadecahydro-2H-cyclopenta[a]chrysen-9-yl)oxy)-2,2-dimethyl-4-oxobutanoic acid] was run?
**A.** 8.15

**Q.** With CC(=O)N(Cc1ccccc1Cl)C[C@@H](O)[C@@]12CC[C@]3(C)[C@H](CC[C@@H]4[C@@]5(C)CC[C@H](OC(=O)CC(C)(C)C(=O)O)C(C)(C)[C@@H]5CC[C@]43C)C1=C(C(C)C)C(=O)C2 [Example 35, 4-(((3aR,5aR,5bR,7aR,9S,11aR,11bR,13aS)-3a-((S)-2-(N-(2-Chlorobenzyl)acetamido)-1-hydroxyethyl)-1-isopropyl-5a,5b,8,8,11a-pentamethyl-2-oxo-3,3a,4,5,5a,5b,6,7,7a,8,9,10,11,11a,11b,12,13,13a-octadecahydro-2H-cyclopenta[a]chrysen-9-yl)oxy)-2,2-dimethyl-4-oxobutanoic acid] as the molecule, how does the pEC50 read?
**A.** 8.38

**Q.** With CC(=O)O[C@H](CN(CCN(C)C)Cc1ccccc1Cl)[C@@]12CC[C@]3(C)[C@H](CC[C@@H]4[C@@]5(C)CC[C@H](OC(=O)CC(C)(C)C(=O)O)C(C)(C)[C@@H]5CC[C@]43C)C1=C(C(C)C)C(=O)C2 [Example 36, 4-(((3aR,5aR,5bR,7aR,9S,11aR,11bR,13aS)-3a-((S)-1-Acetoxy-2-((2-chlorobenzyl)(2-(dimethylamino)ethyl)amino)ethyl)-1-isopropyl-5a,5b,8,8,11a-pentamethyl-2-oxo-3,3a,4,5,5a,5b,6,7,7a,8,9,10,11,11a,11b,12,13,13a-octadecahydro-2H-cyclopenta[a]chrysen-9-yl)oxy)-2,2-dimethyl-4-oxobutanoic acid] as the molecule, how does the pEC50 read?
**A.** 8.40

**Q.** With CC(C)C1=C2[C@H]3CC[C@@H]4[C@@]5(C)CC[C@H](OC(=O)CC(C)(C)C(=O)O)C(C)(C)[C@@H]5CC[C@@]4(C)[C@]3(C)CC[C@@]2([C@H](O)CN(CCN(C)C)Cc2cccc(Cl)c2)CC1=O [Example 44, 4-(((3aR,5aR,5bR,7aR,9S,11aR,11bR,13aS)-3a-((S)-2-((3-Chlorobenzyl)(2-(dimethylamino)ethyl)amino)-1-hydroxyethyl)-1-isopropyl-5a,5b,8,8,11a-pentamethyl-2-oxo-3,3a,4,5,5a,5b,6,7,7a,8,9,10,11,11a,11b,12,13,13a-octadecahydro-2H-cyclopenta[a]chrysen-9-yl)oxy)-2,2-dimethyl-4-oxobutanoic acid] as the molecule, how does the pEC50 read?
**A.** 8.74

**Q.** With CC(C)C1=C2[C@H]3CC[C@@H]4[C@@]5(C)CC[C@H](OC(=O)CC(C)(C)C(=O)O)C(C)(C)[C@@H]5CC[C@@]4(C)[C@]3(C)CC[C@@]2([C@@H](O)CN(CCN(C)C)Cc2cccc(Cl)c2)CC1=O [Example 45, 4-(((3aR,5aR,5bR,7aR,9S,11aR,11bR,13aS)-3a-((R)-2-((3-Chlorobenzyl)(2-(dimethylamino)ethyl)amino)-1-hydroxyethyl)-1-isopropyl-5a,5b,8,8,11a-pentamethyl-2-oxo-3,3a,4,5,5a,5b,6,7,7a,8,9,10,11,11a,11b,12,13,13a-octadecahydro-2H-cyclopenta[a]chrysen-9-yl)oxy)-2,2-dimethyl-4-oxobutanoic acid] as the molecule, how does the pEC50 read?
**A.** 8.72
